# Calls of active or inactive are those of the source. No cut-off for these calls is given here.
# What was measured:
# Plasmodium falciparum [1] = assay: microbe, parasite or virus in culture; conditions: NF54, 48 h
# Description: Antiplasmodial activity against chloroquine-sensitive Plasmodium falciparum NF54 incubated for 48 hrs by parasite lactate dehydrogenase assay
# Plasmodium falciparum [2] = assay: microbe, parasite or virus in culture; conditions: Dd2, 48 h
# Description: Antiplasmodial activity against chloroquine-resistant Plasmodium falciparum Dd2 incubated for 48 hrs by parasite lactate dehydrogenase assay
# CHO = assay: Cytotoxicity in CHO cells assessed as reduction in cell viability; assay type: cell-based; conditions: Cricetulus griseus
# in vitro [3] = conditions: hamster, CHO cells versus Plasmodium falciparum NF54
# Description: Selectivity index, ratio of IC50 for CHO cells to IC50 for antiplasmodial activity against chloroquine-sensitive Plasmodium falciparum NF54
# in vitro [4] = conditions: hamster, CHO cells versus Plasmodium falciparum Dd2
# Description: Selectivity index, ratio of IC50 for CHO cells to IC50 for antiplasmodial activity against chloroquine-resistant Plasmodium falciparum Dd2
# Plasmodium berghei [5] = assay: Antimalarial activity against Plasmodium berghei infected in mouse assessed as suppression in parasitemia at 11.1 mg/kg, ip dosed once daily on days 0, 1, and 2 days post infection measured on day 7 post infection relative to untreated control; assay type: functional
# Plasmodium berghei [6] = assay: Antimalarial activity against Plasmodium berghei infected in mouse assessed as mean survival time at 11.1 mg/kg, ip dosed once daily on days 0, 1, and 2 days post infection measured on day 28 post infection (reference value: 13.2 days); assay type: functional
# Plasmodium berghei [7] = assay: Antimalarial activity against Plasmodium berghei infected in mouse assessed as mean survival time at 33.3 mg/kg, ip dosed once daily on days 0, 1, and 2 days post infection measured on day 28 post infection (reference value: 13.2 days); assay type: functional
# Plasmodium berghei [8] = assay: Antimalarial activity against Plasmodium berghei infected in mouse assessed as suppression in parasitemia at 33.3 mg/kg, ip dosed once daily on days 0, 1, and 2 days post infection measured on day 5 post infection relative to untreated control; assay type: functional
# Heme [9] = assay: Binding affinity to monomeric heme assessed as mole fraction for 1:1 binding stoichiometry with monomeric heme at pH 5.6 by spectrophotometric titration analysis
# Plasmodium berghei [10] = assay: Antimalarial activity against Plasmodium berghei infected in mouse assessed as suppression in parasitemia at 33.3 mg/kg, ip dosed once daily on days 0, 1, and 2 days post infection measured on day 7 post infection relative to untreated control; assay type: functional
# Heme [11] = assay: Binding affinity to monomeric heme assessed as decrease in the Soret band at pH 5.6 by spectrophotometric titration analysis
# [12] = Intrinsic clearance human liver microsomes in the presence of NADPH; assay type: ADME, Microsome; conditions: read-out: CLH
# [13] = Half life human liver microsomes in the presence of NADPH; assay type: ADME, Microsome
# Plasmodium berghei [14] = assay: Antimalarial activity against Plasmodium berghei infected in mouse assessed as parasitemia cure at 11.1 mg/kg, ip dosed once daily on days 0, 1, and 2 days post infection measured on day 28 post infection; assay type: functional, organism-based
# Plasmodium berghei [15] = assay: Antimalarial activity against Plasmodium berghei infected in mouse assessed as suppression in parasitemia at 11.1 mg/kg, ip dosed once daily on days 0, 1, and 2 days post infection measured on day 5 post infection relative to untreated control; assay type: functional
# Heme [16] = assay: Binding affinity to monomeric heme assessed as decrease in the Soret band at pH 7.4 by spectrophotometric titration analysis
# Heme [17] = assay: Binding affinity to monomeric heme assessed as mole fraction for 1:1 binding stoichiometry with monomeric heme at pH 7.4 by spectrophotometric titration analysis
# Plasmodium berghei [18] = assay: Antimalarial activity against Plasmodium berghei infected in mouse assessed as host survival at 33.3 mg/kg, ip dosed once daily on days 0, 1, and 2 days post infection measured on day 28 post infection relative to untreated control; assay type: functional, organism-based
# Plasmodium berghei [19] = assay: Antimalarial activity against Plasmodium berghei infected in mouse assessed as suppression in parasitemia at 11.1 mg/kg, po dosed once daily on days 0, 1, and 2 days post infection measured on day 5 post infection relative to untreated control; assay type: functional
# Plasmodium berghei [20] = assay: Antimalarial activity against Plasmodium berghei infected in mouse assessed as suppression in parasitemia at 33.3 mg/kg, po dosed once daily on days 0, 1, and 2 days post infection measured on day 5 post infection relative to untreated control; assay type: functional
# Plasmodium berghei [21] = assay: Antimalarial activity against Plasmodium berghei infected in mouse assessed as suppression in parasitemia at 11.1 mg/kg, po dosed once daily on days 0, 1, and 2 days post infection measured on day 7 post infection relative to untreated control; assay type: functional
# Plasmodium berghei [22] = assay: Antimalarial activity against Plasmodium berghei infected in mouse assessed as suppression in parasitemia at 33.3 mg/kg, po dosed once daily on days 0, 1, and 2 days post infection measured on day 7 post infection relative to untreated control; assay type: functional
# Plasmodium berghei [23] = assay: Antimalarial activity against Plasmodium berghei infected in mouse assessed as host survival at 33.3 mg/kg, po dosed once daily on days 0, 1, and 2 days post infection measured on day 28 post infection relative to untreated control; assay type: functional, organism-based
# Plasmodium berghei [24] = assay: Antimalarial activity against Plasmodium berghei infected in mouse assessed as parasitemia cure at 11.1 mg/kg, po dosed once daily on days 0, 1, and 2 days post infection measured on day 28 post infection; assay type: functional, organism-based
# Plasmodium berghei [25] = assay: Antimalarial activity against Plasmodium berghei infected in mouse assessed as host survival at 11.1 mg/kg, po dosed once daily on days 0, 1, and 2 days post infection measured on day 28 post infection relative to untreated control; assay type: functional, organism-based
# Plasmodium berghei [26] = assay: Antimalarial activity against Plasmodium berghei infected in mouse assessed as mean survival time at 33.3 mg/kg, po dosed once daily on days 0, 1, and 2 days post infection measured on day 28 post infection (reference value: 13.2 days); assay type: functional
# Plasmodium berghei [27] = assay: Antimalarial activity against Plasmodium berghei infected in mouse assessed as mean survival time at 11.1 mg/kg, po dosed once daily on days 0, 1, and 2 days post infection measured on day 28 post infection (reference value: 13.2 days); assay type: functional
# Plasmodium falciparum [28] = assay: Potency index, ratio of IC50 for artemisinin to IC50 for test compound for antiplasmodial activity against chloroquine-resistant Plasmodium falciparum Dd2 incubated for 48 hrs by parasite lactate dehydrogenase assay; assay type: functional
# Plasmodium berghei [29] = assay: Antimalarial activity against Plasmodium berghei infected in mouse assessed as parasitemia cure at 33.3 mg/kg, ip dosed once daily on days 0, 1, and 2 days post infection measured on day 28 post infection; assay type: functional, organism-based
# Plasmodium berghei [30] = assay: Antimalarial activity against Plasmodium berghei infected in mouse assessed as host survival at 11.1 mg/kg, ip dosed once daily on days 0, 1, and 2 days post infection measured on day 28 post infection relative to untreated control; assay type: functional, organism-based
# Plasmodium falciparum [31] = assay: Potency index, ratio of IC50 for chloroquine to IC50 for test compound for antiplasmodial activity against chloroquine-resistant Plasmodium falciparum Dd2 incubated for 48 hrs by parasite lactate dehydrogenase assay; assay type: functional
# Plasmodium berghei [32] = assay: Antimalarial activity against Plasmodium berghei infected in mouse assessed as parasitemia cure at 33.3 mg/kg, po dosed once daily on days 0, 1, and 2 days post infection measured on day 28 post infection; assay type: functional, organism-based
SMILES,IC50 (Plasmodium falciparum [1]),IC50 (Plasmodium falciparum [2]),IC50 (CHO),selectivity ratio (in vitro [3]),selectivity ratio (in vitro [4]),other results
N#Cc1cc(Nc2ccnc3cc(Cl)ccc23)ccc1F,> 3.36 µM,3.2 µM,–,–,–,–
CCN1CCN(c2nc(C)cc(NCc3cc(Nc4ccnc5cc(Cl)ccc45)ccc3F)n2)CC1,0.0112 µM,0.00763 µM,–,–,–,–
Cc1cc(N2CCN(c3ccccc3)CC2)nc(NCc2cc(Nc3ccnc4cc(Cl)ccc34)ccc2F)n1,0.0698 µM,0.0622 µM,17.5 µM,251,282,–
Cc1cc(N2CCOCC2)nc(NCc2cc(Nc3ccnc4cc(Cl)ccc34)ccc2F)n1,0.0121 µM,0.0179 µM,4.59 µM,380,256,–
Cc1cc(NCc2cc(Nc3ccnc4cc(Cl)ccc34)ccc2F)nc(N2CCCCCC2)n1,0.0169 µM,0.0272 µM,–,–,–,–
CCN1CCN(c2cc(C)nc(NCc3cc(Nc4ccnc5cc(Cl)ccc45)ccc3F)n2)CC1,0.0289 µM,0.0234 µM,80.3 µM,2780,3430,–
Cc1cc(Cl)nc(NCc2cc(Nc3ccnc4cc(Cl)ccc34)ccc2F)n1,0.231 µM,0.297 µM,–,–,–,–
Cc1cc(NCc2cc(Nc3ccnc4cc(Cl)ccc34)ccc2F)nc(N2CCN(C)CC2)n1,0.0125 µM,0.00524 µM,–,–,–,Activity (Plasmodium berghei [5]): 92.9%; MST (Plasmodium berghei [6]): 19.8 days; MST (Plasmodium berghei [7]): 28 days; Activity (Plasmodium berghei [8]): 100%; Activity (mole fraction) (Heme [9]): 0.5; Activity (Plasmodium berghei [10]): 100%; Activity (Heme [11]): Active; microsomal CLint [12]: 82.8 µL/min/mg; half-life [13]: 16.7 min; Activity (Plasmodium berghei [14]): inactive; Activity (Plasmodium berghei [15]): 91.9%; Activity (Heme [16]): Active; Activity (mole fraction) (Heme [17]): 0.5; Activity (Plasmodium berghei [18]): Active
Cc1cc(NCc2cc(Nc3ccnc4cc(Cl)ccc34)ccc2F)nc(N2CCN(c3ccccc3)CC2)n1,0.0177 µM,0.0313 µM,17.4 µM,981,555,–
Cc1cc(NCc2cc(Nc3ccnc4cc(Cl)ccc34)ccc2F)nc(Cl)n1,0.183 µM,0.214 µM,–,–,–,–
Cc1cc(N2CCCCCC2)nc(NCc2cc(Nc3ccnc4cc(Cl)ccc34)ccc2F)n1,0.148 µM,0.0675 µM,–,–,–,–
Cc1cc(N2CCCC2)nc(NCc2cc(Nc3ccnc4cc(Cl)ccc34)ccc2F)n1,0.089 µM,0.0749 µM,–,–,–,–
C[C@H]1[C@H](OC(=O)CCC(=O)O)O[C@@H]2O[C@@]3(C)CC[C@H]4[C@H](C)CC[C@@H]1[C@@]24OO3 [ARTESUNATE],0.01 µM,0.013 µM,–,–,–,–
NCc1cc(Nc2ccnc3cc(Cl)ccc23)ccc1F,0.0461 µM,0.0587 µM,31.3 µM,680,533,–
Cc1cc(NCc2cc(Nc3ccnc4cc(Cl)ccc34)ccc2F)nc(N2CCSCC2)n1,0.0228 µM,0.0331 µM,15.2 µM,664,459,–
Cc1cc(NCc2cc(Nc3ccnc4cc(Cl)ccc34)ccc2F)nc(N2CCCC2)n1,0.0124 µM,0.00823 µM,3.8 µM,306,462,–
Cc1cc(N2CCSCC2)nc(NCc2cc(Nc3ccnc4cc(Cl)ccc34)ccc2F)n1,0.00747 µM,0.016 µM,2.71 µM,362,169,–
Cc1cc(NCc2cc(Nc3ccnc4cc(Cl)ccc34)ccc2F)nc(N2CCCCC2)n1,0.0138 µM,0.0172 µM,–,–,–,–
Cc1cc(NCc2cc(Nc3ccnc4cc(Cl)ccc34)ccc2F)nc(N2CCOCC2)n1,0.0267 µM,0.0333 µM,14.6 µM,544,437,–
CCN(CC)CCCC(C)Nc1ccnc2cc(Cl)ccc12 (stereo unspecified) [CHLOROQUINE],–,–,–,–,–,Activity (Plasmodium berghei [19]): 100%; Activity (Plasmodium berghei [20]): 100%; Activity (Plasmodium berghei [21]): 99.2%; Activity (Plasmodium berghei [22]): 100%; Activity (Plasmodium berghei [23]): Active; Activity (Plasmodium berghei [24]): inactive; Activity (Plasmodium berghei [25]): Active; MST (Plasmodium berghei [26]): 28 days; MST (Plasmodium berghei [27]): 28 days
Cc1cc(N2CCCCC2)nc(NCc2cc(Nc3ccnc4cc(Cl)ccc34)ccc2F)n1,0.0134 µM,0.00469 µM,3.18 µM,237,680,Activity (Plasmodium berghei [5]): 100%; MST (Plasmodium berghei [6]): 28 days; MST (Plasmodium berghei [7]): 28 days; Activity (Plasmodium berghei [8]): 100%; Activity (Plasmodium berghei [10]): 100%; Ratio IC50 (Plasmodium falciparum [28]): 2.8; Activity (Plasmodium berghei [29]): Active; Activity (Plasmodium berghei [14]): inactive; Activity (Plasmodium berghei [15]): 100%; Activity (Plasmodium berghei [30]): Active; Activity (Plasmodium berghei [18]): Active; Ratio IC50 (Plasmodium falciparum [31]): 47.3
CCN(CC)Cc1cc(Nc2ccnc3cc(Cl)ccc23)ccc1O [AMODIAQUINE],–,–,–,–,–,Activity (Plasmodium berghei [19]): 100%; Activity (Plasmodium berghei [20]): 100%; Activity (Plasmodium berghei [21]): 100%; Activity (Plasmodium berghei [32]): Active; Activity (Plasmodium berghei [22]): 100%; microsomal CLint [12]: 431 µL/min/mg; Activity (Plasmodium berghei [23]): Active; Activity (Plasmodium berghei [25]): Active; half-life [13]: 5.4 min; MST (Plasmodium berghei [26]): 28 days; MST (Plasmodium berghei [27]): 28 days
Cc1cc(N2CCN(C)CC2)nc(NCc2cc(Nc3ccnc4cc(Cl)ccc34)ccc2F)n1,0.0153 µM,0.0184 µM,58.2 µM,3800,3160,–

# — ChEMBL document CHEMBL4433224, “Hybridization of Fluoro-amodiaquine (FAQ) with Pyrimidines: Synthesis and Antimalarial Efficacy of FAQ-Pyrimidines” (ACS Med Chem Lett, 2019)
